One assay has as its system rats. In words: Increase in intragastric pressure. Conditions: dose level of 1.0 mg/kg s.c.; conscious but restrained rats; average height of pressure waves, 40 minute period after administration vs pre-dose; Student's t test. Type of assay: in vivo. As for the experimental part: Intragastric pressure changes were recorded from previously starved conscious but restrained rats using a saline filled catheter inserted into the lumen of the stomach via a permanent gastric fistula. The catheter was connected to a physiological pressure transducer and pressure changes recorded on a hot wire pen recorder. In each animal a pre-dose period of 40 minutes was allowed to obtain a measure of spontaneous activity. An index of activity was obtained by measuring the average height of pressure waves during 10 minute periods. Values for 4 such periods were obtained during assessment of spontaneous activity and for 40 minute period after administration of compound. Student's "t" test was applied to the difference in average values obtained for spontaneous and post compound activity.

The test system of a further assay is dog. In words: Anti-emetic activity in the dog (apomorphine-induced vomiting). The format is in vivo. As to conditions: compound subcutaneously 30 minutes prior to apomorphine HC1 0.1 mg/kg subcutaneously; for ED50: Canis lupus familiaris, sc, read-out: ED50 values for inhibition of the vomiting response. How it is done:
Compounds were administered subcutaneously 30 minutes prior to administration of a standard dose of apomorphine HC1 (0.1 mg/kg subcutaneously) and the vomiting response compared to that obtained when the same animals were dosed with apomorphine HC1 and vehicle only. The ED50 values for inhibition of the vomiting response determined for compound 11 and 13 were 1.0 mg/kg; for compound 33, 0.1 mg/kg and for compound 35, 0.01 mg/kg.

We go through six compounds from patent publication EP0067565A1, “Pharmaceutically active compounds” (BEECHAM GROUP PLC, priority 1981, dated 1982).

In the case of `COc1cc(N)c(Cl)cc1C(=O)N[C@@H]1C[C@@H]2CCCN2[C@H](C)C1` (racemic) [Compound 8, (±) 4-Amino-5-chloro-2-methoxy-N-[7'β-(9'β-methyl-1'-aza-5'α-H-bicyclo[4,3,n]nonyl)]benzamide], the “index of activity post administration” value in the assay with rats is on record as “significantly increased”.
Turning to `COc1cc(N)c(Cl)cc1C(=O)N[C@H]1C[C@@H]2CCCN2[C@H](C)C1` (racemic) [Compound 9, (±) 4-Amino-5-chloro-2-methoxy-N-[7'α-(9'β-methyl-1'-aza-5'α-H-bicyclo[4,3,0]nonyl)]benzamide], the “index of activity post administration” value with rats is recorded as “significantly increased”.
For orientation: ED50 means the dose at which the effect has come halfway, by size or by number of responders. `COc1cc(N)c(Cl)cc1C(=O)N[C@@H]1C[C@@H]2CCCN2[C@@H](C)C1` (racemic) [Compound 11, (±) 4-Amino-5-chloro-2-methoxy-rd-[7'β-(9'α-methyl-1'-aza-5α-H-bicyclo[4,3,0]nonyl)]benzamide]: the “index of activity post administration” value in the assay on rats was “significantly increased”. Also, in the assay with dog, the ED50 was 1 mg/kg.
Turning to `COc1cc(N)c(Cl)cc1C(=O)N[C@H]1C[C@@H]2CCCN2[C@@H](C)C1` (racemic) [Compound 13, (±) 4-Amino-5-chloro-2-methoxy-N-[7'α-(9'α-methyl-1'-aza-5α-H-bicyclo[4,3,0]nonyl)]benzamide], the ED50 with dog turned out to be 1 mg/kg.
`CC[C@H]1C[C@H](NC(=O)c2cc(Cl)c(N)cc2OC)C[C@@H]2CCCN12` (racemic) [Compound 33, (±) 4-Amino-5-chloro-2-methoxy-N-[7'β-(9'α-ethyl-1'-aza-5'α-H-bicyclo[4,3,0]nonyl)]benzamide]: in the assay on dog, the ED50 was 0.1 mg/kg.
Take “(±) 4-Amino-5-chloro-2-methoxy-N-[7'β-(9'α-isopropyl-1'-aza-5'-α-H-bicyclo[4,3,0]nonyl)]benzamide [Compound 35]”: the “ED50 values for inhibition of the vomiting response” value in the assay on dog amounted to 0.01 mg/kg.
